The subject of one assay is MCF-7 cells. The assay can be described thus: Induction of apoptosis assessed by confocal fluorescence microscopy (PI staining). In kind it is cell-based, human. The following applies: for cell death: 12h. As for the experimental part: To confirm the flow cytometry results, the induction of apoptotic cell death by our MLB007R1 compound was examined by confocal fluorescence microscopy. MCF-7 tumor cells were treated with the compound-polarized macrophages (10 000/well) at concentrations of 0, 20, 40, and 60 µg/ml for 12 hours. Induction of apoptotic cell death was accompanied by characteristic ultrastructural changes, such as chromatin condensation, nuclear fragmentation, and collapse of the cell into membrane-bound apoptotic bodies.
Confocal laser scanning microscopy (CLSM). Analysis of apoptosis-like morphological changes was performed on cells grown on coverslips and fixed with 4% paraformaldehyde in PBS (pH 7.4) for 10 minutes at room temperature (RT). After washing in PBS, the samples were stained for nuclear labeling with 2 µg/ml PI and 0.1 mg/ml RNase for 5 minutes at RT. Coverslips were mounted on glass slides in the presence of Glycerol/PBS at a ratio of 4:1 and observed with a LEICA TCS 4D confocal laser scanning microscope equipped with an argon/cripton laser and oil immersion objectives. The excitation and emission wavelengths were 488 and 590 nm, respectively. The images were recorded in pseudocolor.

Another assay relates to MCF-7, HUVEC, HepG2. The experiment in a line: Determination of cell growth and viability (cell count, trypan blue exclusion). It counts as cell-based, human. Here is the method: The tumor models utilized in these experiments are as follows: • Diagram A: MCF-7 (breast cancer cells), • Diagram B: HUVEC (human umbilical vein endothelial cells) and • Diagram C: HepG2 (human liver cancer cells).
Cell growth of an untreated and resveratrol derivative (MLB007R1) treated cell culture was compared. Tumor cell lines (MCF-7 (breast cancer cells), HUVEC (human umbilical vein endothelial cells) and HepG2 (human liver cancer cells)) were cultured in RPMI 1640 cell medium and exposed to 60 µg/ml resveratrol derivative polarized macrophages (10 000/ well). Cell growth, cell cycle disruption and apoptosis were assessed using the trypan blue exclusion method.
Cells were seeded in 24-well tissue culture plates (Falcon) at a concentration of 1×10^5 cells/ml and allowed to adhere overnight. […] Cell growth and viability were assessed every 12 hours. Trypsinized cells were manually counted using a hemocytometer, and cell viability was determined using the trypan blue dye exclusion assay.
Initially, cell number was measured after incubation to 200 000 cells per culture.
The kinetics of cell growth on human MCF-7 breast cancer cells were cultured and measured for 12, 24 and 36 hours in culture medium containing the indicated drug-polarized macrophages. […] Tumor cell viability and cell growth were determined using the trypan blue assay and cell count, respectively. […]

The subject of assay [1] is ovarian cancer cells (cell line A2780). The experiment in a line: Viability and apoptosis of ovarian cancer cells with polarized macrophages (interference light microscopy, PI). It counts as cell-based, human. Here is the method:
Diagrams A and C show as a control the cells after treatment with DMSO.
Diagrams B and D show the cells treated with 60 µg/ml MLB007R1 after 12 h.
The present study explores the response of ovarian cancer cells to MLB007R1. MLB007R1 macrophages inhibited growth and induced death in human ovarian cancer cell lines. In a further course, A2780 cells were co-incubated with MLB007R1 derivative polarized macrophages and treated. MLB007R1 induces cell death and inhibits ovarian cancer cell growth. Treatment of A2780 cells with MLB007R1 induced cell death after 12 hours. Proliferation of A2780 cultures treated with MLB007R1 was analyzed over 12 hours of continuous treatment.
Cells were plated out and 60 µg/ml MLB007R1 treated macrophages were added to the culture medium 12 h after plating out (24 h preincubation period). The percentage of apoptotic cells was determined at the indicated time points by propidium iodide (PI) staining on semipermeabilized cells as previously described. In this assay, apoptotic cells are identified by hypodiploid DNA content resulting from DNA fragmentation. To assess viability, intact cells were harvested, stained with PI, and analyzed for their plasma membrane permeability to PI by flow cytometry. Cell number was determined by interference light microscopy. The ovarian cancer cells (A2780) were incubated with 60µg/ml MLB007R1 concentration treated macrophages. […]

In assay [2] the test system is HepG2, HUVEC, PaCA-2, MDA-MB-231, MCF-7, T24, AsPc-1, Panc-1. The experiment in a line: Cell Viability Assay (MTT), tumor cells with MLB007R1 polarized macrophages. The following applies: for cell death: 60 µg/ml, all tumor models. It counts as cell-based, human. The source says:
The following tumor models and cell lines have been used to proof the anti-tumoral properties of the derivatives of the invention: • Diagram A: HepG2 (human liver cancer cells), • Diagram B: HUVEC (human umbilical vein endothelial cells, • Diagram C: PaCA-2 (human pancreatic cancer cells), • Diagram D: MDA-MB-231 (highly aggressive, invasive and poorly differentiated triple-negative human breast cancer cells), • Diagram E: MCF-7 (human breast cancer cells), • Diagram F: T24 (human urinary bladder cancer cells), • Diagram G: AsPc-1 (human pancreatic tumor cells) and • Diagram H: Panc-1 (human pancreatic cancer cells).
In the examples, the resveratrol derivative MLB007R1 was applied at concentrations of 0 µg/ml, 10 µg/ml, 20 µg/ml, 40 µg/ml and 60 µg/ml. As a control, an underivatized agent was used at a concentration of 60 µg/ml. The dead cells were measured in percentage after 0, 12, 24 and 36 hours.
Tumor cell lines HUVEC (human umbilical vein endothelial cells), paCA-2 (human pancreatic cancer cells), MDA-MB-231 (highly aggressive, invasive and poorly differentiated triple-negative breast cancer cells), HepG2 (human liver cancer cells), MCF-7 (breast cancer cells), T24 (human urinary bladder cancer cells), AsPc-1 (human pancreatic tumor cells), Panc-1 (human pancreatic cancer cells) were seeded in 96-well plates ([…]) and divided into two groups: the untreated control group and the active compound resveratrol derivative treated group. Cells in the normal group were incubated under normal growth conditions. In the resveratrol derivative (MLB007R1) treated group, the cells were pre-incubated with differentiated and polarized macrophages (5x10^5 cells/well) for 24 hours with different final concentrations of the resveratrol derivative.
Wells were then washed three times with phosphate buffered saline (PBS) and incubated again for 4 hours with […] RPMI 1640 containing 10% fetal bovine serum. The medium was then replaced with fresh medium serially incubated with different concentrations of the lead compound and incubated with the macrophages, and the plates were incubated for 12, 24, and 36 hours. The medium containing the resveratrol derivative polarized macrophages was replaced every 12 h with freshly prepared medium. Wells were then washed three times with PBS and incubated again for 4 h, adding […] of RPMI 1640 and […] of MTT solution (5 mg/mL). After removal of the culture medium, […] of DMSO was added to dissolve the precipitate, and the absorbance at 570 nm of the resulting solutions was measured using a CODA Automated EIA Analyzer (Bio-Rad Laboratories, Hercules, CA, USA).
The cytotoxicity of the resveratrol derivative compound was evaluated on all cancer cell lines using the MTT method.

A further assay relates to HepG2. The following applies: after 24 hours at 60 µM; cited from earlier work.

Each structure is given as a SMILES string.

Turning to `C=COC(=O)COc1ccc(C=Cc2cc(OCC(=O)OC=C)cc(OCC(=O)OC=C)c2)cc1` [MLB007R1, divinyl 2,2'-((5-(4-(2-oxo-2-(vinyloxy)ethoxy)styryl)-1,3-phenylene)bis(oxy))diacetate], the apoptosis induction result with MCF-7 cells (20 µg/ml (B), 12 hours) is “No to little apoptosis induction”. The “number of apoptotic cells” value in the assay with MCF-7 cells (40 (C) and 60 (D) µg/ml, 12 hours) is “increased the number of apoptotic cells”. In addition, the cell death in the assay with MCF-7 cells (Diagram B: 20 µg/ml MLB007R1 treated macrophages) is above 50%; with MCF-7 cells (Diagram C: 20 µg/ml MLB007R1 treated macrophages) it was above 65%; in the assay on MCF-7 cells (Diagram D: 60 µg/ml MLB007R1 treated macrophages) it was above 80%; in assay [2] (after 12h), 70-85%; in assay [2] (after 24 hours), 85-92%; in assay [2] (after 36h) it was “approximately 96%”. In addition, the “number of tumor cells” value in the assay on MCF-7, HUVEC, HepG2 (60 µg/ml, after 12 hours, polarized macrophages) is listed as “dramatic decrease”. Further, the decreased cell number result in the assay on MCF-7, HUVEC, HepG2 (after only 12 hours of incubation) was “more than 90%”. Besides, the “proliferation of A2780 cultures” value in assay [1] (12 hours of continuous treatment) is recorded as “No further growth occurred”. Further, in assay [1] (macrophages incubated in 60µg/ml, 12 h), the “ovarian cancer cells killed by polarized macrophages” value is “more than 80%”.

In the case of `Oc1ccc(C=Cc2cc(O)cc(O)c2)cc1` [resveratrol, 3,4',5-trihydroxy-stilbene, reference compound], the “decreased HepG2 cell number” value in the assay on HepG2 is “approximately 70%”. Also, the “effect on tumor cells” value in assay [2] (control at 60 µg/ml, compared with resveratrol derivative) is “significantly higher”.
